In US20250376469A1, “INDOLIZINE DERIVATIVES FOR TREATING TRPM3-MEDIATED DISORDERS” (Katholieke Universiteit Leuven, priority 2022, published 2025):
pIC50: −log10 of the molar value.

target: T1, mouse TRPM3α2 (mTRPM3) ion channel (Mus musculus, UniProt J9SQF3); assay: TRPM3 ion channel driven Ca2+ uptake (Fluo-4 AM assay, pregnenolone sulfate stimulated); assay type: cell-based; conditions: TRPM3 overexpressing flip-in HEK293 cells, channel opened with pregnenolone sulfate (PS) 50 μM, 2.4 mM Ca2+
T1 construct: expressed in transfected cells; host or cells: flip-in HEK293
Description: In order to monitor the inhibition of the mouse TRPM3α2 (mTRPM3) ion channel by the compounds of the invention, a cellular system making use of an mTRPM3alpha2 or hTRPM3 overexpressing cell line (flip-in HEK293) was used. The TRPM3 channel was stimulated/opened with Pregnenolone sulfate (PS) (50 μM) which results in Ca^2+ influx.
For mTRPM3, the intracellular Ca^2+ was measured with a Calcium responsive dye, Fluor-4 AM ester (Invitrogen). Cells were cultured until a confluence of 80-90%, washed with Versene (Invitrogen) and detached from the surface by a short incubation with 0.05% Trypsin (Invitrogen). The trypsination process was stopped by the addition of complete cell culture medium (DMEM, glutamax, 10% FCS, NEAA, Pen-Strep). Cells were collected and resuspended in Krebs buffer without Calcium at RT.
Prior the cell seeding (±2000 cells/well into a black, 384 well plate (Greiner)) the diluted compound was added in the assay plate, together with the PS dissolved in Krebs buffer containing Calcium. […] Directly after cell addition the plates were read on an Envision fluorescence reader (Perkin Elmer) by an Excitation of 485 nm and emission at 535 nm.
Channel inhibition was calculated compared to a non-PS stimulated control versus a condition stimulated with PS (50 μM) with vehicle. The ability of a the compounds of the invention to inhibit this activity was determined as: Percentage inhibition=[1−((RFU determined for sample with test compound present−RFU determined for sample with positive control inhibitor) divided by (RFU determined in the presence of vehicle−RFU determined for sample with positive control inhibitor))]*100.
The activities of the Example compounds […] tested are depicted in the table below. The activity ranges A, B and C refer to IC50 values in the Fluo-4 AM assay as follows: […]

T1 sequence (J9SQF3 1-1709 isoform J9SQF3-12): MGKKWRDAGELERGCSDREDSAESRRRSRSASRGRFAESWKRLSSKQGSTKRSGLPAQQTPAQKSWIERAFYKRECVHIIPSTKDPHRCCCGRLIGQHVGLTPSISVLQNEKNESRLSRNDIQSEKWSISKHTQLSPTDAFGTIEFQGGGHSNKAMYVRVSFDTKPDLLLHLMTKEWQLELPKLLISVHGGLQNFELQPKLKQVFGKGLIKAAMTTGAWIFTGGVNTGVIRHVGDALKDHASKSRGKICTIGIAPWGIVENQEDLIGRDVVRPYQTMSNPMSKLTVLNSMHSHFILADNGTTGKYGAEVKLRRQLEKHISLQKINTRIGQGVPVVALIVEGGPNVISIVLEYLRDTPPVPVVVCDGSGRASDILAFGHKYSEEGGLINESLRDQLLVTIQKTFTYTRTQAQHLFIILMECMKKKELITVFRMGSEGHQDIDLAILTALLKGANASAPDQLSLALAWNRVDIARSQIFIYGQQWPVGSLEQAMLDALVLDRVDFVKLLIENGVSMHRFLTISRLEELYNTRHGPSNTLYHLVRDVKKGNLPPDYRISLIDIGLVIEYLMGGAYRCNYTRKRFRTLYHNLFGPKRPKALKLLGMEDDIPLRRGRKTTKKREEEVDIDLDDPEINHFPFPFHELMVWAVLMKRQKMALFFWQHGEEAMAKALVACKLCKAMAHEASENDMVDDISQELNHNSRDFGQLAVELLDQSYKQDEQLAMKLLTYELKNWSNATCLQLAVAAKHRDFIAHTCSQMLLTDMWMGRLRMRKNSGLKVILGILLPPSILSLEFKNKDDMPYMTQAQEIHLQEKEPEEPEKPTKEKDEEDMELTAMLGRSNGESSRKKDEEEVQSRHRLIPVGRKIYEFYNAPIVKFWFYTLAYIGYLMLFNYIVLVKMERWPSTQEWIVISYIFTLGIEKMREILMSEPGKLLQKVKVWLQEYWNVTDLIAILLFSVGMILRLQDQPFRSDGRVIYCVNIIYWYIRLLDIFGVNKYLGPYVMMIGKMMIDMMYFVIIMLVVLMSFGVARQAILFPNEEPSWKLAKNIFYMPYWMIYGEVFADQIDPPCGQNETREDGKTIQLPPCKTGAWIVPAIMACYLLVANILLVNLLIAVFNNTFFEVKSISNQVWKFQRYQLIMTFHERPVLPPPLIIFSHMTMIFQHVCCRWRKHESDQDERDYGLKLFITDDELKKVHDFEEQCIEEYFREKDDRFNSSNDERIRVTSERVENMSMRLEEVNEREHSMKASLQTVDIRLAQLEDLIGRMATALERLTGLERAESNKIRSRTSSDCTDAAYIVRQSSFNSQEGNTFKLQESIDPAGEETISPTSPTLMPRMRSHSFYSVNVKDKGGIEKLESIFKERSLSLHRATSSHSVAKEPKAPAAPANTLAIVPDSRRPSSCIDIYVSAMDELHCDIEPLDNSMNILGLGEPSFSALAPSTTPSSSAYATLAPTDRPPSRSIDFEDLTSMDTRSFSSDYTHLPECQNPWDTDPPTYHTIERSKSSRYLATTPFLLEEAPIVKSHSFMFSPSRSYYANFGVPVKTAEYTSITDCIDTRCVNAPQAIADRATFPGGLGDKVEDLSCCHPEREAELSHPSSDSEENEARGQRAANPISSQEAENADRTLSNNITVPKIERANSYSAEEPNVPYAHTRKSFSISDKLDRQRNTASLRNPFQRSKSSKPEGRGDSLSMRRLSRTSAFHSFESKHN

| SMILES | pIC50 |
| --- | --- |
| Cc1cc2ccc(OCc3ccccn3)cn2c1C(=O)NC1CNCCC1(F)F (single isomer, unassigned) [Cpd 017 - En2, N-(4,4-difluoropiperidin-3-yl)-2-methyl-6-[(pyridin-2-yl)methoxy]indolizine-3-carboxamide] | < 4.70 |
| Cc1cc2ccc(OCc3ccccc3F)cn2c1C(=O)NC1CNCCC1(F)F (stereo not drawn) [Cpd 008, N-(4,4-difluoropiperidin-3-yl)-6-[(2-fluorophenyl)methoxy]-2-methylindolizine-3-carboxamide] | 4.70 to 6.00 |
| Cc1cc2ccc(OCc3cccnc3)cn2c1C(=O)NC(CO)CC(F)(F)F (single isomer, unassigned) [Cpd 042 - En1] | > 6.00 |
| Cc1cc2ccc(OCc3ccccn3)cn2c1C(=O)NC1(CO)CCNC1=O (single isomer, unassigned) [Cpd 016 - En1] | > 6.00 |
| Cc1cc2ccc(OCc3cccnc3C(F)(F)F)cn2c1C(=O)NC(CO)CC(F)(F)F (single isomer, unassigned) [Cpd 044 - En2] | > 6.00 |
| Cc1cc2ccc(OCC3CC3)cn2c1C(=O)NC(C)(CO)C(N)=O (single isomer, unassigned) [Cpd 019 - En2] | 4.70 to 6.00 |
| Cc1cc2ccc(OCc3cnccn3)cn2c1C(=O)NC1(CO)CCNC1=O (single isomer, unassigned) [Cpd 046 - En2] | < 4.70 |
| Cc1cc2ccc(OCc3ccccn3)cn2c1C(=O)NC(C)C(N)=O (single isomer, unassigned) [Cpd 018 - En1] | 4.70 to 6.00 |
| Cc1cc2ccc(OCc3cccnc3C(F)(F)F)cn2c1C(=O)NC1(CO)CCNC1=O (single isomer, unassigned) [Cpd 039 - En2] | 4.70 to 6.00 |
| Cc1cc2ccc(OCc3cccnc3)cn2c1C(=O)NC1(CO)CCNC1=O (single isomer, unassigned) [Cpd 037 - En2] | 4.70 to 6.00 |
| Cc1cc2ccc(OCc3ccccc3F)cn2c1C(=O)NC(C)(CO)CO [Cpd 006, N-(1,3-dihydroxy-2-methylpropan-2-yl)-6-[(2-fluorophenyl)methoxy]-2-methylindolizine-3-carboxamide] | > 6.00 |
| Cc1cc2ccc(OCc3ccccn3)cn2c1C(=O)NC1(CO)CCNC1=O (single isomer, unassigned) [Cpd 016 - En2] | 4.70 to 6.00 |
| Cc1cc2ccc(OCc3cnccn3)cn2c1C(=O)NC1(CO)CCNC1=O (single isomer, unassigned) [Cpd 046 - En1] | > 6.00 |
| Cc1cc2ccc(OCC3CC3)cn2c1C(=O)NC(C)(CO)C(N)=O (single isomer, unassigned) [Cpd 019 - En1] | > 6.00 |
| Cc1cc2ccc(OCc3cnccn3)cn2c1C(=O)NC(CO)CC(F)(F)F (single isomer, unassigned) [Cpd 041 - En2] | < 4.70 |
| Cc1cc2ccc(OCc3c(F)cnn3C)cn2c1C(=O)NC1(CO)CCNC1=O (single isomer, unassigned) [Cpd 040 - En2] | 4.70 to 6.00 |
| Cc1cc2ccc(OCc3ccccc3)cn2c1C(=O)NC(CO)C(N)=O (single isomer, unassigned) [Cpd 034 - En1] | > 6.00 |
| COc1ncccc1COc1ccc2cc(C)c(C(=O)NC(CO)CC(F)(F)F)n2c1 (single isomer, unassigned) [Cpd 043 - En2] | < 4.70 |
| COCC(C)(CO)NC(=O)c1c(C)cc2ccc(OCc3ccccn3)cn12 (single isomer, unassigned) [Cpd 032 - En1] | 4.70 to 6.00 |
| Cc1ncc(COc2ccc3cc(C)c(C(=O)NC(C)(CO)C(N)=O)n3c2)s1 (single isomer, unassigned) [Cpd 029 - En2, 3-hydroxy-2-methyl-2-({2-methyl-6-[(2-methyl-1,3-thiazol-5-yl)methoxy]indolizin-3-yl}formamido)propanamide] | 4.70 to 6.00 |
| Cc1cc2ccc(OCc3ccccc3)cn2c1C(=O)NC(C)(CO)CC(F)F (single isomer, unassigned) [Cpd 035 - En1] | > 6.00 |

| SMILES | pIC50 |
| --- | --- |
| Cc1cc2ccc(OCc3ccccc3F)cn2c1C(=O)NC(C)(CO)C(N)=O (single isomer, unassigned) [Cpd 005 - En1, 2-({6-[(2-fluorophenyl)methoxy]-2-methylindolizin-3-yl}formamido)-3-hydroxy-2-methylpropanamide] | > 6.00 |
| Cc1cc2ccc(OCc3ccccn3)cn2c1C(=O)NC(C)(CO)CC(F)F (single isomer, unassigned) [Cpd 036 - En1] | > 6.00 |
| Cc1cc2ccc(OCc3ccccc3F)cn2c1C(=O)NC(C)(CO)C(N)=O (single isomer, unassigned) [Cpd 005 - En2, 2-({6-[(2-fluorophenyl)methoxy]-2-methylindolizin-3-yl}formamido)-3-hydroxy-2-methylpropanamide] | > 6.00 |
| Cc1cc2ccc(OCc3cccnc3C(F)(F)F)cn2c1C(=O)NC(CO)CC(F)(F)F (single isomer, unassigned) [Cpd 044 - En1] | < 4.70 |
| Cc1cc2ccc(OCc3ccccn3)cn2c1C(=O)NC(C)(CO)C(N)=O (single isomer, unassigned) [Cpd 014 - En2] | 4.70 to 6.00 |
| Cc1ncc(COc2ccc3cc(C)c(C(=O)NC(C)C(N)=O)n3c2)s1 (stereo not drawn) [Cpd 031, 2-({2-methyl-6-[(2-methyl-1,3-thiazol-5-yl)methoxy]indolizin-3-yl}formamido)propanamide] | 4.70 to 6.00 |
| Cc1cc2ccc(OCc3cccnc3C(F)(F)F)cn2c1C(=O)NC1(CO)CCNC1=O (single isomer, unassigned) [Cpd 039 - En1] | > 6.00 |
| Cc1cc2ccc(OCc3ccccc3F)cn2c1C(=O)N[C@@H](C)C(N)=O [Cpd 002, (2S)-2-({6-[(2-fluorophenyl)methoxy]-2-methylindolizin-3-yl}formamido)propanamide] | > 6.00 |
| COc1ncccc1COc1ccc2cc(C)c(C(=O)NC3(CO)CCNC3=O)n2c1 (single isomer, unassigned) [Cpd 038 - En2] | 4.70 to 6.00 |
| COc1ncccc1COc1ccc2cc(C)c(C(=O)NC(CO)CC(F)(F)F)n2c1 (single isomer, unassigned) [Cpd 043 - En1] | > 6.00 |
| CC(=O)C(C)NC(=O)c1c(C)cc2ccc(OCC(F)F)cn12 (single isomer, unassigned) [Cpd 028 - En1] | < 4.70 |
| Cc1cc2ccc(OCc3cnccn3)cn2c1C(=O)NC(CO)CC(F)(F)F (single isomer, unassigned) [Cpd 041 - En1] | 4.70 to 6.00 |
| Cc1cc2ccc(OCc3c(F)cnn3C)cn2c1C(=O)NC1(CO)CCNC1=O (single isomer, unassigned) [Cpd 040 - En1] | > 6.00 |
| Cc1cc2ccc(OCC3CC3)cn2c1C(=O)NC(C)(CO)CO [Cpd 020, 6-(cyclopropylmethoxy)-N-(1,3-dihydroxy-2-methylpropan-2-yl)-2-methylindolizine-3-carboxamide] | > 6.00 |
| Cc1cc2ccc(OCc3ccccc3)cn2c1C(=O)NC(C)(CO)CC(F)F (single isomer, unassigned) [Cpd 035 - En2] | 4.70 to 6.00 |
| Cc1cc2ccc(OCc3ccccn3)cn2c1C(=O)NC(C)(CO)CO [Cpd 015, N-(1,3-dihydroxy-2-methylpropan-2-yl)-2-methyl-6-[(pyridin-2-yl)methoxy]indolizine-3-carboxamide] | > 6.00 |
| Cc1cc2ccc(OCc3c(F)cnn3C)cn2c1C(=O)NC(CO)CC(F)(F)F (single isomer, unassigned) [Cpd 045 - En1] | 4.70 to 6.00 |
| Cc1cc2ccc(OCc3cccnc3)cn2c1C(=O)NC1(CO)CCNC1=O (single isomer, unassigned) [Cpd 037 - En1] | > 6.00 |
| Cc1cc2ccc(OCc3ccccn3)cn2c1C(=O)NC(CO)C(N)=O (single isomer, unassigned) [Cpd 033 - En2] | > 6.00 |
| Cc1cc2ccc(OCC3CC3)cn2c1C(=O)NC1(CO)CCNC1=O (single isomer, unassigned) [Cpd 021 - En2] | 4.70 to 6.00 |
| Cc1cc2ccc(OCc3ccccn3)cn2c1C(=O)NC1CNCCC1(F)F (single isomer, unassigned) [Cpd 017 - En1, N-(4,4-difluoropiperidin-3-yl)-2-methyl-6-[(pyridin-2-yl)methoxy]indolizine-3-carboxamide] | 4.70 to 6.00 |
